Experimental data reported in US8952042B2, “FXR (NR1H4) binding and activity modulating compounds” (Phenex Pharmaceuticals AG, priority 2009, dated 2015).

How the values were obtained:
[1] = molecular target: T1, human FXR alpha ligand binding domain (Homo sapiens, UniProt Q96RI1); assay: FRET activity assay (ligand mediated cofactor peptide interaction, LANCE); format: biochemical; details: potency range
T1 construct: made in house; host or cells: E. coli BL21(DE3), vector pDEST15
T1 sequence (Q96RI1 187-472 isoform Q96RI1-2): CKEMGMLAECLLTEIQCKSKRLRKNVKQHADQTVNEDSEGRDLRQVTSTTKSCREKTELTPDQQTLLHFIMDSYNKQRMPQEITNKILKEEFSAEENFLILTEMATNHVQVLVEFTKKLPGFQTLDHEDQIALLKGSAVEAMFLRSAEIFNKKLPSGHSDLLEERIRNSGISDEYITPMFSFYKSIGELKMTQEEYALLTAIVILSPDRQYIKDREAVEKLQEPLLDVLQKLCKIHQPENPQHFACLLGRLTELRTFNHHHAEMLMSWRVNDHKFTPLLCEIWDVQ
Protocol: Determination of a ligand mediated cofactor peptide interaction to quantify ligand binding to the nuclear receptor FXR was performed as follows: Preparation of human FXR alpha ligand binding domain: The human FXRalpha LBD was expressed in E. coli strain BL21(DE3) as an N-terminally GST tagged fusion protein. The DNA encoding the FXR ligand binding domain was cloned into vector pDEST15 (Invitrogen). Expression was under control of an IPTG inducible T7 promoter. The amino acid boundaries of the ligand binding domain were amino acids 187-472 of Database entry NM_005123 (RefSeq). Expression and purification of the FXR-LBD: An overnight preculture of a transformed E. coli strain was diluted 1:20 in LB-Ampicillin medium and grown at 30° C. to an optical density of OD600=0.4-0.6. Gene expression was then induced by addition of 0.5 mM IPTG. Cells were incubated an additional 6 h at 30° C., 180 rpm. Cells were collected by centrifugation (7000×g, 7 min, room temperature). Per liter of original cell culture, cells were resuspended in 10 mL lysis buffer (50 mM Glucose, 50 mM Tris pH 7.9, 1 mM EDTA and 4 mg/mL lysozyme) and left on ice for 30 min. Cells were then subjected to sonication and cell debris removed via centrifugation (22000×g, 30 min, 4° C.). Per 10 mL of supernatant 0.5 mL prewashed Glutathione 4B sepharose slurry (Qiagen) was added and the suspension kept slowly rotating for 1 h at 4° C. Glutathione 4B sepharose beads were pelleted by centrifugation (2000×g, 15 sec, 4° C.) and washed twice in wash buffer (25 mM Tris, 50 mM KCl, 4 mM MgCl2 and 1M NaCl). The pellet was resuspended in 3 mL elution buffer per liter of original culture (elution buffer: 20 mM Tris, 60 mM KCl, 5 mM MgCl2 and 80 mM glutathione added immediately prior to use as powder). The suspension was left rotating for 15 min at 4° C., the beads pelleted and eluted again with half the volume of elution buffer than the first time. The eluates were pooled and dialysed overnight in 20 mM Hepes buffer (pH 7.5) containing 60 mM KCl, 5 mM MgCl2 as well as 1 mM dithiothreitol and 10% (v/v) glycerol. The protein was analysed by SDS-Page.
The method measures the ability of putative ligands to modulate the interaction between the purified bacterial expressed FXR ligand binding domain (LBD) and a synthetic biotinylated peptide based on residues 676-700 of SRC-1 (LCD2, 676-700). […] The ligand binding domain (LBD) of FXR was expressed as fusion protein with GST in BL-21 cells using the vector pDEST15. Cells were lysed by sonication, and the fusion proteins purified over glutathione sepharose (Pharmacia) according to the manufacturers instructions. For screening of compounds for their influence on the FXR-peptide interaction, the Perkin Elmer LANCE technology was applied. This method relies on the binding dependent energy transfer from a donor to an acceptor fluorophor attached to the binding partner of interest. For ease of handling and reduction of background from compound fluorescence LANCE technology makes use of generic fluorophore labels and time resolved detection Assays were done in a final volume of 25 μL in a 384 well plate, in a Tris-based buffer (20 mM Tris-HCl pH 7.5; 60 mM KCl, 5 mM MgCl2; 35 ng/μL BSA), containing 20-60 ng/well recombinantly expressed FXR-LBD fused to GST, 200-600 nM N-terminally biotinylated peptide, representing SRC1 aminoacids 676-700, 200 ng/well Streptavidin-xIAPC conjugate (Prozyme) and 6-10 ng/well Eu W1024—antiGST (Perkin Elmer). DMSO content of the samples was kept at 1%. After generation of the assay mix and diluting the potentially FXR modulating ligands, the assay was equilibrated for one hour in the dark at room temperature in FIA-plates black 384 well (Greiner). The LANCE signal was detected by a Perkin Elmer VICTOR2V™ Multilabel Counter. The results were visualized by plotting the ratio between the emitted light at 665 and 615 nm.

[2] = molecular target: T2, FXR ligand binding domain (Homo sapiens, UniProt Q96RI1); assay: Mammalian One Hybrid (M1H) Gal4 reporter assay in HEK293 cells; format: cell-based; details: potency range
T2 construct: expressed in transfected cells; host or cells: HEK293 cells (DSMZ), transient transfection of pCMV-BD-FXR-LBD
T2 sequence (Q96RI1 187-472 isoform Q96RI1-2): T1 sequence (Q96RI1 187-472 isoform Q96RI1-2)
Protocol: Determination of a ligand mediated Gal4 promoter driven transactivation to quantify ligand binding mediated activation of FXR was performed as follows: The cDNA part encoding the FXR ligand binding domain was cloned into vector pCMV-BD (Stratagene) as a fusion to the yeast GAL4 DNA binding domain under the control of the CMV promoter. The amino acid boundaries of the ligand binding domain were amino acids 187-472 of Database entry NM_005123 (RefSeq). The plasmid pFR-Luc (Stratagene) was used as the reporter plasmid, containing a synthetic promoter with five tandem repeats of the yeast GAL4 binding sites, driving the expression of the Photinus pyralis (American firefly) luciferase gene as the reporter gene. In order to improve experimental accuracy the plasmid pRL-CMV (Promega) was cotransfected. pRL-CMV contains the constitutive CMV promoter, controlling the expression of the Renilla reniformis luciferase. All Gal4 reporter gene assays were done in HEK293 cells (obtained from DSMZ, Braunschweig, Germany) grown in MEM with L-Glutamine and Earle's BSS supplemented with 10% fetal bovine serum, 0.1 mM nonessential amino acids, 1 mM sodium pyruvate, and 100 units Penicillin/[…] per mL at 37° C. in 5% CO2. Medium and supplements were obtained from Invitrogen. For the assay, […] were plated per well in 96 well plates in 100 μL per well MEM without Phenol Red and L-Glutamine and with Earle's BSS supplemented with 10% charcoal/dextran treated FBS (HyClone, South Logan, Utah), 0.1 mM nonessential amino acids, 2 mM glutamine, 1 mM sodium pyruvate, and 100 units Penicillin/[…] per mL, incubated at 37° C. in 5% CO2. The following day the cells were >90% confluence. Medium was removed and cells were transiently transfected using 20 μL per well of a OptiMEM—polyethylene-imine-based transfection-reagent (OptiMEM, Invitrogen; Polyethyleneimine, Aldrich Cat No. 40, 827-7) including the three plasmids described above. MEM with the same composition as used for plating cells was added 2-4 h after addition of transfection mixture. Then compound stocks, prediluted in MEM were added (final vehicle concentration not exceeding 0.1%). Cells were incubated for additional 16 h before firefly and renilla luciferase activities were measured sequentially in the same cell extract using a Dual-Light-Luciferase-Assay system (Dyer et al., Anal. Biochem. 2000, 282, 158-161). All experiments were done in triplicates.

Row | Structure (SMILES) | EC50 [1] [nM] | EC50 [2] [nM]
1 | Cn1nc(C(=O)O)c2ccc(C3CC3c3ccc(OCc4c(-c5c(Cl)cccc5Cl)noc4C4CC4)cc3Cl)cc21 (racemic) [Example 13, 6-(2-(2-chloro-4-((5-cyclopropyl-3-(2,6-dichlorophenyl)isoxazol-4-yl)methoxy)phenyl)cyclopropyl)-1-methyl-1H-indazole-3-carboxylic acid] | 10 to 100 | 10 to 100
2 | O=C(O)c1cccc(C2CC2c2ccc(OCc3c(-c4c(Cl)cccc4Cl)noc3C3CC3)cc2Cl)c1 (single isomer, unassigned; (+)) [Example 5b, (+)-3-(2-(2-chloro-4-((5-cyclopropyl-3-(2,6-dichlorophenyl)isoxazol-4-yl)methoxy)phenyl)cyclopropyl)benzoic acid] | > 100 | > 100
3 | O=C(O)c1ccc(C2CC2c2ccc(OCc3c(-c4c(Cl)cccc4Cl)noc3C3CC3)cc2Cl)cc1 (single isomer, unassigned; (+)) [Example 12b, (+)-4-(2-(2-chloro-4-((5-cyclopropyl-3-(2,6-dichlorophenyl)isoxazol-4-yl)methoxy)phenyl)cyclopropyl)benzoic acid] | > 100 | > 100
4 | Cn1nc(C(=O)O)c2ccc(C3CC3c3ccc(OCc4c(-c5c(Cl)cccc5Cl)noc4C4CC4)cc3Cl)cc21 (single isomer, unassigned; (+)) [Example 13a, (+)-6-(2-(2-chloro-4-((5-cyclopropyl-3-(2,6-dichlorophenyl)isoxazol-4-yl)methoxy)phenyl)cyclopropyl)-1-methyl-1H-indazole-3-carboxylic acid] | 10 to 100 | 10 to 100
5 | O=C(O)c1cccc(C2CC2c2ccc(OCc3c(-c4c(Cl)cccc4Cl)noc3C3CC3)cc2Cl)c1 (single isomer, unassigned; (-)) [Example 5a, (−)-3-(2-(2-chloro-4-((5-cyclopropyl-3-(2,6-dichlorophenyl)isoxazol-4-yl)methoxy)phenyl)cyclopropyl)benzoic acid] | < 10 | 10 to 100
6 | Cn1nc(C(=O)O)c2ccc(C3CC3c3ccc(OCc4c(-c5c(Cl)cccc5Cl)noc4C4CC4)cc3Cl)cc21 (single isomer, unassigned; (-)) [Example 13b, (−)-6-(2-(2-chloro-4-((5-cyclopropyl-3-(2,6-dichlorophenyl)isoxazol-4-yl)methoxy)phenyl)cyclopropyl)-1-methyl-1H-indazole-3-carboxylic acid] | < 10 | < 10
7 | O=C(O)c1cccc(C2CC2c2ccc(OCc3c(-c4c(Cl)cncc4Cl)noc3C3CC3)cc2Cl)c1 (stereo not shown) [Example 1, 3-(2-(2-chloro-4-((5-cyclopropyl-3-(3,5-dichloropyridin-4-yl)isoxazol-4-yl)methoxy)phenyl)cyclopropyl)-benzoic acid] | 10 to 100 | 10 to 100
8 | O=C(O)c1cccc(C2CC2c2ccc(OCc3c(-c4c(Cl)c[n+]([O-])cc4Cl)noc3C3CC3)cc2Cl)c1 (stereo not shown) [Example 2, 4-(4-((4-(2-(3-carboxyphenyl)cyclopropyl)-3-chlorophenoxy)methyl)-5-cyclopropylisoxazol-3-yl)-3,5-dichloropyridine 1-oxide] | 10 to 100 | 10 to 100
9 | CC(C)c1nnn(-c2c(Cl)cccc2Cl)c1COc1ccc(C2CC2c2cccc(C(=O)O)c2)c(Cl)c1 (stereo not shown) [Example 3, 3-(2-(2-chloro-4-((1-(2,6-dichlorophenyl)-4-isopropyl-1H-1,2,3-triazol-5-yl)methoxy)phenyl)cyclopropyl)benzoic acid] | 10 to 100 | 10 to 100
10 | CC(C)c1onc(-c2c(Cl)cccc2Cl)c1COc1ccc(C2CC2c2cccc(C(=O)O)c2)c(Cl)c1 (stereo not shown) [Example 6, 3-(2-(2-chloro-4-((3-(2,6-dichlorophenyl)-5-isopropylisoxazol-4-yl)methoxy)phenyl)cyclopropyl)benzoic acid] | 10 to 100 | 10 to 100
11 | Clc1cc(OCc2c(-c3c(Cl)cccc3Cl)noc2C2CC2)ccc1C1CC1c1ccc(-c2nnn[nH]2)nc1 (stereo not shown) [Example 7, 4-((4-(2-(6-(1H-tetrazol-5-yl)pyridin-3-yl)cyclopropyl)-3-chlorophenoxy)methyl)-5-cyclopropyl-3-(2,6-dichlorophenyl)isoxazole] | 10 to 100 | 10 to 100
12 | O=C(O)c1ccc(C2CC2c2ccc(OCc3c(-c4c(Cl)cccc4Cl)noc3C3CC3)cc2Cl)cn1 (stereo not shown) [Example 8, 5-(2-(2-chloro-4-((5-cyclopropyl-3-(2,6-dichlorophenyl)isoxazol-4-yl)methoxy)-phenyl)cyclopropyl)picolinic acid] | 10 to 100 | 10 to 100
13 | O=C(NCCS(=O)(=O)O)c1ccc(C2CC2c2ccc(OCc3c(-c4c(Cl)cccc4Cl)noc3C3CC3)cc2Cl)cc1 (stereo not shown) [Example 15, 2-(4-(2-(2-chloro-4-((5-cyclopropyl-3-(2,6-dichlorophenyl)isoxazol-4-yl)methoxy)phenyl)cyclopropyl)benzamido)ethanesulfonic acid] | 10 to 100 | > 100
14 | CC(C)(O)c1onc(-c2c(Cl)cccc2Cl)c1COc1ccc(C2CC2c2ccc(C(=O)O)cc2)c(Cl)c1 (stereo not shown) [Example 17, 4-(2-(2-chloro-4-((3-(2,6-dichlorophenyl)-5-(2-hydroxypropan-2-yl)isoxazol-4-yl)methoxy)phenyl)cyclopropyl)benzoic acid] | > 100 | > 100
